Experimental data reported in article PMC3124571 (Biochemical pharmacology, 2011).
Like-named read-outs stand apart in the source and are kept apart here.

Legend:
[1] = biological target: carbonyl-reducing enzymes of baboon placental microsomes; type: biochemical; settings: read-out: IC50 (TB formation, placental microsomes)
[2] = biological target: carbonyl-reducing enzymes of baboon hepatic microsomes; type: biochemical; settings: read-out: IC50 (TB formation, hepatic microsomes); n = 3
[3] = biological target: carbonyl-reducing enzymes of baboon placental microsomes; type: biochemical; settings: read-out: IC50 (EB formation, placental microsomes)
[4] = system: TB and EB formation by baboon placental microsomes; settings: placental microsomes 1 mg/ml, bupropion 30 µM, 40 min; menadione 100µM, 18β-GA 0.1µM, flufenamic acid 5µM, barbital, 4-methylpyrazole, dicumarol 500µM
[5] = system: TB and EB formation by baboon hepatic microsomes; settings: hepatic microsomes 1 mg/ml, bupropion 30 µM, 40 min; menadione 100µM, 18β-GA 0.1µM, flufenamic acid 5µM, barbital, 4-methylpyrazole, dicumarol 500µM
[6] = system: OH-BUP formation by baboon hepatic microsomes
[7] = Biotransformation of bupropion by baboon hepatic microsomes; settings: female, baboon (Papio cynocephalus), liver microsomes, pH 7.4, apparent Km
[8] = system: baboon hepatic microsomes; test: as above
[9] = Biotransformation of bupropion by baboon placental microsomes; settings: baboon (Papio cynocephalus), pH 7.4, apparent Km
[10] = system: EB formation (bupropion carbonyl reduction); carbonyl reductase (menadione), aldo-ketoreductase (flufenamic acid); test: in vitro; settings: baboon (Papio cynocephalus), placental microsomes, probe bupropion 30 µM (≈Km)
[11] = system: TB formation (bupropion carbonyl reduction); carbonyl reductase (menadione), aldo-ketoreductase (flufenamic acid); test: in vitro; settings: baboon (Papio cynocephalus), placental microsomes, probe bupropion 30 µM (≈Km)
[12] = system: EB formation (bupropion carbonyl reduction); aldo-ketoreductase (flufenamic acid); test: in vitro; settings: baboon (Papio cynocephalus), liver microsomes, probe bupropion 30 µM (≈Km)
[13] = system: TB formation (bupropion carbonyl reduction); carbonyl reductase (menadione), aldo-ketoreductase (flufenamic acid); test: in vitro; settings: baboon (Papio cynocephalus), liver microsomes, probe bupropion 30 µM (≈Km)

Which IC50 [1] does the source give for `CC1(C)[C@@H](O)CC[C@]2(C)[C@H]3C(=O)C=C4[C@@H]5C[C@@](C)(C(=O)O)CC[C@]5(C)CC[C@@]4(C)[C@]3(C)CC[C@@H]12` [18β-GA, 18β-glycyrrhetinic acid] here?
Its IC50 is 0.025 µM.

And the IC50 [2]?
The IC50 was 0.015 µM.

What about the IC50 [3] of the same molecule?
Its IC50 is 0.022 µM.

Which “inhibition of EB formation” value [4] does the source give for `CC1(C)[C@@H](O)CC[C@]2(C)[C@H]3C(=O)C=C4[C@@H]5C[C@@](C)(C(=O)O)CC[C@]5(C)CC[C@@]4(C)[C@]3(C)CC[C@@H]12` [18β-glycyrrhetinic acid] here?
The value was 80%.

What about the “inhibition of TB formation” value [4] of the same molecule?
The value was 80%.

What about the “inhibition of TB formation” value [5] of the same molecule?
The value was 80%.

For `C=C(C)[C@@H]1CCC2=CC(=O)C[C@@H](C)[C@]2(C)C1` [(+)-nootkatone], which inhibition [6] is on record?
Its inhibition is 10 to 15%.

For `CCC1(CC)C(=O)NC(=O)NC1=O` [barbital], which “inhibition of EB formation” value [4] is on record?
The value was “did not affect”.

What about the “inhibition of TB formation” value [4] of the same molecule?
Its value is “did not affect”.

What about the “inhibition of EB formation” value [5] of the same molecule?
Its value is “did not affect”.

And the “inhibition of TB formation” value [5]?
The value was “did not affect”.

What does the source list for `CC(NC(C)(C)C)C(=O)c1cccc(Cl)c1` (stereo not shown) [bupropion]?
Km at 30 min ([7]; hydroxylation of bupropion to OH-BUP, bupropion 10–400µM): 36 ± 6 µM; Km at 30 min ([7]; reduction of bupropion to EB): 32 ± 3 µM; Km at 30 min ([7]; reduction of bupropion to TB): 28 ± 2 µM; Vmax, EB formation [8]: 46 ± 8 pmol mgprotein^−1 min^−1; Vmax, TB formation [8]: 116 ± 19 pmol mgprotein^−1 min^−1; Km at 40 min ([9]; reduction of bupropion to EB): 32 ± 14 µM; Km at 40 min ([9]; reduction of bupropion to TB): 20 ± 14 µM

For `O=C(O)c1ccccc1Nc1cccc(C(F)(F)F)c1` [flufenamic acid], which IC50 at 40 min [10] is on record?
The IC50 at 40 min was 5.6 µM.

And the inhibition at 40 min [10]?
The inhibition at 40 min was 40%.

What about the IC50 at 40 min [11] of the same molecule?
Its IC50 at 40 min is 9.9 µM.

What about the inhibition at 40 min [11] of the same molecule?
Its inhibition at 40 min is 40%.

And the IC50 at 40 min [12]?
Its IC50 at 40 min is 7.7 µM.

And the IC50 at 40 min [13]?
The IC50 at 40 min was 11.4 µM.

What about the inhibition at 40 min [13] of the same molecule?
Its inhibition at 40 min is 40%.

What does the source list for `CC1=CC(=O)c2ccccc2C1=O` [menadione]?
IC50 at 40 min [10]: 30.3 µM; IC50 at 40 min [11]: 27.9 µM; IC50 at 40 min [13]: 47 µM
